The target of the experiment is T1, Recombinant human BRD4 containing dual bromodomains (BRD4-BD12 (1-477)) (Homo sapiens, UniProt O60885).
T1 construct: Recombinant human BRD4 containing dual bromodomains (BRD4-BD12 (1-477)); made in house; host or cells: E. coli BL21-CodonPlus (DE3), modified pET vector
Briefly: BRD4 Alphascreen binding assay. In short, it runs like this:
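AlphaScreen proximity between Ni-chelate-bound BRD4-BD12 (1-477) and streptavidin-captured H4 K5/K8/K12/K16-acetyl peptide measured after 1 h room-temperature compound incubation and 30 min with 7.5 μg/ml beads. Buffer: 50 mM HEPES pH 7.5, 50 mM NaCl, 0.01% BSA, 0.01% Triton X-100; data plate-normalized and four-parameter fit for IC50.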

For `Cc1noc(C)c1-c1cnc2c(c1)c(-c1ccc(C(=O)O)cc1OC(F)(F)F)cn2-c1ccc(C(C)(C)O)cc1` [P-0314, 4-(5-(3,5-dimethylisoxazol-4-yl)-1-(4-(2-hydroxypropan-2-yl)phenyl)-1H-pyrrolo[2,3-b]pyridin-3-yl)-3-(trifluoromethoxy)benzoic acid], the half-inhibitory concentration (IC50) is 0.1 to 1000 nM.

As to `Cc1noc(C)c1-c1cnc2c(c1)c(-c1ccc(C(=O)O)cc1OC(F)(F)F)cn2-c1ccsc1` [P-0315, 4-(5-(3,5-dimethylisoxazol-4-yl)-1-(thiophen-3-yl)-1H-pyrrolo[2,3-b]pyridin-3-yl)-3-(trifluoromethoxy)benzoic acid], the IC50 lay within 0.1 to 1000 nM.

For orientation: IC50 means the concentration that gives 50% inhibition.

These data come from patent US11446287B2, “Compounds and methods for EP300 or CBP modulation and indications therefor” (Opna Immuno-Oncology SA, priority 2019, dated 2022).
